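Tested at 5 concentrations; 48 h exposure; 96-well plates; endpoints linearly interpolated, else capped at highest concentration. At the GI50, growth is halved.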 Calls of active or inactive are those of the source. Cut-off read from the data, not from the text of the source: active = GI50 up to about 1.1 µM and inactive = higher.
Columns and labels:
Experiment in all cases: NCI-60 cell line screen, 48 h
[1] = test system: HOP-62
[2] = test system: COLO 205
[3] = test system: CCRF-CEM
[4] = test system: U-251
[5] = test system: SN12C
[6] = test system: K562
[7] = test system: MDA-N
[8] = test system: KM12
[9] = test system: MCF7
[10] = test system: OVCAR-5
[11] = test system: BT-549
[12] = test system: SK-MEL-28
[13] = test system: LOX IMVI
[14] = test system: Malme-3M
[15] = test system: HCC 2998
[16] = test system: SK-MEL-2
[17] = test system: OVCAR-4
[18] = test system: M14
[19] = test system: TK-10
[20] = test system: SR
[21] = test system: HCT-116
[22] = test system: SF-268
[23] = test system: ACHN
[24] = test system: PC-3
[25] = test system: DU-145
[26] = test system: RPMI-8226
[27] = test system: SW-620
[28] = test system: OVCAR-3
[29] = test system: NCI/ADR-RES
[30] = test system: NCI-H522
[31] = test system: UACC-62
[32] = test system: CAKI-1
[33] = test system: T47D
[34] = test system: SF-295
[35] = test system: NCI-H23
[36] = test system: A498
[37] = test system: MDA-MB-231
[38] = test system: OVCAR-8
[39] = test system: A549
[40] = test system: SK-MEL-5
[41] = test system: IGROV-1
[42] = test system: HT-29
[43] = test system: UO-31
[44] = test system: SNB-19
[45] = test system: SNB-75
[46] = test system: HOP-92
[47] = test system: 786-0
[48] = test system: Hs-578T
[49] = test system: SF-539
[50] = test system: HCT-15
[51] = test system: HL-60
[52] = test system: NCI-H460
[53] = test system: MOLT-4
[54] = test system: UACC-257
[55] = test system: RXF 393
[56] = test system: MDA-MB-435
[57] = test system: EKVX
[58] = test system: SK-OV-3

SMILES: CCOP(=O)(OCC)/C(F)=C/c1ccc(F)cc1
- GI50 [1]: > 100 µM (inactive)
- GI50 [2]: > 100 µM (inactive)
- GI50 [3]: > 100 µM (inactive)
- GI50 [4]: > 100 µM (inactive)
- GI50 [5]: > 100 µM (inactive)
- GI50 [6]: > 100 µM (inactive)
- GI50 [7]: > 100 µM (inactive)
- GI50 [8]: > 100 µM (inactive)
- GI50 [9]: > 100 µM (inactive)
- GI50 [10]: > 100 µM (inactive)
- GI50 [11]: > 100 µM (inactive)
- GI50 [12]: > 100 µM (inactive)
- GI50 [13]: > 100 µM (inactive)
- GI50 [14]: > 100 µM (inactive)
- GI50 [15]: > 10 µM (inactive)
- GI50 [16]: > 100 µM (inactive)
- GI50 [17]: > 100 µM (inactive)
- GI50 [18]: > 100 µM (inactive)
- GI50 [19]: > 100 µM (inactive)
- GI50 [20]: > 100 µM (inactive)
- GI50 [21]: > 100 µM (inactive)
- GI50 [22]: > 100 µM (inactive)
- GI50 [23]: > 100 µM (inactive)
- GI50 [24]: > 100 µM (inactive)
- GI50 [25]: > 100 µM (inactive)
- GI50 [26]: > 100 µM (inactive)
- GI50 [27]: > 100 µM (inactive)
- GI50 [28]: > 100 µM (inactive)
- GI50 [29]: > 100 µM (inactive)
- GI50 [30]: > 100 µM (inactive)
- GI50 [31]: 91.2 µM (inactive)
- GI50 [32]: > 100 µM (inactive)
- GI50 [33]: > 100 µM (inactive)
- GI50 [34]: > 100 µM (inactive)
- GI50 [35]: > 100 µM (inactive)
- GI50 [36]: > 100 µM (inactive)
- GI50 [37]: > 100 µM (inactive)
- GI50 [38]: > 100 µM (inactive)
- GI50 [39]: > 100 µM (inactive)
- GI50 [40]: > 100 µM (inactive)
- GI50 [41]: > 100 µM (inactive)
- GI50 [42]: > 100 µM (inactive)
- GI50 [43]: > 100 µM (inactive)
- GI50 [44]: > 100 µM (inactive)
- GI50 [45]: > 100 µM (inactive)
- GI50 [46]: > 100 µM (inactive)
- GI50 [47]: > 100 µM (inactive)
- GI50 [48]: > 100 µM (inactive)
- GI50 [49]: > 100 µM (inactive)
- GI50 [50]: > 100 µM
- GI50 [51]: > 100 µM (inactive)
- GI50 [52]: > 100 µM (inactive)
- GI50 [53]: > 100 µM (inactive)
- GI50 [54]: > 100 µM (inactive)
- GI50 [55]: > 100 µM (inactive)
- GI50 [56]: > 100 µM (inactive)
- GI50 [57]: > 100 µM (inactive)
- GI50 [58]: > 100 µM (inactive)

SMILES: CC1(C)CNC(=O)C2(/C=N/C(C)(C)CNC(=O)C3(/C=N/1)CCCO3)CCCO2 (stereo unspecified)
- GI50 [1]: > 10 µM (inactive)
- GI50 [2]: > 10 µM (inactive)
- GI50 [3]: > 10 µM (inactive)
- GI50 [4]: > 10 µM (inactive)
- GI50 [5]: > 10 µM (inactive)
- GI50 [6]: > 10 µM (inactive)
- GI50 [7]: > 10 µM (inactive)
- GI50 [8]: > 10 µM (inactive)
- GI50 [9]: > 10 µM (inactive)
- GI50 [11]: > 10 µM (inactive)
- GI50 [12]: > 10 µM (inactive)
- GI50 [14]: > 10 µM (inactive)
- GI50 [15]: > 10 µM (inactive)
- GI50 [17]: > 10 µM (inactive)
- GI50 [18]: > 10 µM (inactive)
- GI50 [19]: > 10 µM (inactive)
- GI50 [20]: > 10 µM (inactive)
- GI50 [21]: > 10 µM (inactive)
- GI50 [22]: > 10 µM (inactive)
- GI50 [23]: > 10 µM (inactive)
- GI50 [24]: > 10 µM (inactive)
- GI50 [25]: > 10 µM (inactive)
- GI50 [26]: > 10 µM (inactive)
- GI50 [27]: > 10 µM (inactive)
- GI50 [28]: > 10 µM (inactive)
- GI50 [29]: > 10 µM (inactive)
- GI50 [30]: > 10 µM (inactive)
- GI50 [31]: > 10 µM (inactive)
- GI50 [32]: > 10 µM (inactive)
- GI50 [33]: > 10 µM (inactive)
- GI50 [34]: > 10 µM (inactive)
- GI50 [35]: > 10 µM (inactive)
- GI50 [36]: > 10 µM (inactive)
- GI50 [37]: > 10 µM (inactive)
- GI50 [38]: > 10 µM (inactive)
- GI50 [39]: > 10 µM (inactive)
- GI50 [40]: > 10 µM (inactive)
- GI50 [41]: > 10 µM (inactive)
- GI50 [42]: > 10 µM (inactive)
- GI50 [44]: > 10 µM (inactive)
- GI50 [45]: > 10 µM (inactive)
- GI50 [46]: > 10 µM (inactive)
- GI50 [47]: > 10 µM (inactive)
- GI50 [48]: > 10 µM (inactive)
- GI50 [49]: > 10 µM (inactive)
- GI50 [50]: > 10 µM
- GI50 [51]: > 10 µM (inactive)
- GI50 [53]: > 10 µM (inactive)
- GI50 [54]: > 10 µM (inactive)
- GI50 [55]: > 10 µM (inactive)
- GI50 [56]: > 10 µM (inactive)
- GI50 [57]: > 10 µM (inactive)
- GI50 [58]: > 10 µM (inactive)
